Data reported in ChEMBL document CHEMBL3621115, “Discovery of 6-phenylimidazo[2,1-b]thiazole derivatives as a new type of FLT3 inhibitors” (Bioorg Med Chem Lett, 2015).
Calls of active or inactive are those of the source. No cut-off for these calls is given here.

Columns and labels:
[1] = target: Tyrosine-protein kinase Lck (Homo sapiens, UniProt P06239); assay: Inhibition of human recombinant Lck
[2] = target: Insulin-like growth factor 1 receptor (Homo sapiens, UniProt P08069); assay: Inhibition of human recombinant IGF-1R
[3] = target: Tyrosine-protein kinase JAK3 (Homo sapiens, UniProt P52333); assay: Inhibition of human recombinant JAK3
[4] = target: Dual specificity mitogen-activated protein kinase kinase 1 (Homo sapiens, UniProt Q02750); assay: Inhibition of human recombinant MEK1
[5] = target: Hepatocyte growth factor receptor (Homo sapiens, UniProt P08581); assay: Inhibition of human recombinant Met
Hepatocyte growth factor receptor, sequence (P08581 whole entry): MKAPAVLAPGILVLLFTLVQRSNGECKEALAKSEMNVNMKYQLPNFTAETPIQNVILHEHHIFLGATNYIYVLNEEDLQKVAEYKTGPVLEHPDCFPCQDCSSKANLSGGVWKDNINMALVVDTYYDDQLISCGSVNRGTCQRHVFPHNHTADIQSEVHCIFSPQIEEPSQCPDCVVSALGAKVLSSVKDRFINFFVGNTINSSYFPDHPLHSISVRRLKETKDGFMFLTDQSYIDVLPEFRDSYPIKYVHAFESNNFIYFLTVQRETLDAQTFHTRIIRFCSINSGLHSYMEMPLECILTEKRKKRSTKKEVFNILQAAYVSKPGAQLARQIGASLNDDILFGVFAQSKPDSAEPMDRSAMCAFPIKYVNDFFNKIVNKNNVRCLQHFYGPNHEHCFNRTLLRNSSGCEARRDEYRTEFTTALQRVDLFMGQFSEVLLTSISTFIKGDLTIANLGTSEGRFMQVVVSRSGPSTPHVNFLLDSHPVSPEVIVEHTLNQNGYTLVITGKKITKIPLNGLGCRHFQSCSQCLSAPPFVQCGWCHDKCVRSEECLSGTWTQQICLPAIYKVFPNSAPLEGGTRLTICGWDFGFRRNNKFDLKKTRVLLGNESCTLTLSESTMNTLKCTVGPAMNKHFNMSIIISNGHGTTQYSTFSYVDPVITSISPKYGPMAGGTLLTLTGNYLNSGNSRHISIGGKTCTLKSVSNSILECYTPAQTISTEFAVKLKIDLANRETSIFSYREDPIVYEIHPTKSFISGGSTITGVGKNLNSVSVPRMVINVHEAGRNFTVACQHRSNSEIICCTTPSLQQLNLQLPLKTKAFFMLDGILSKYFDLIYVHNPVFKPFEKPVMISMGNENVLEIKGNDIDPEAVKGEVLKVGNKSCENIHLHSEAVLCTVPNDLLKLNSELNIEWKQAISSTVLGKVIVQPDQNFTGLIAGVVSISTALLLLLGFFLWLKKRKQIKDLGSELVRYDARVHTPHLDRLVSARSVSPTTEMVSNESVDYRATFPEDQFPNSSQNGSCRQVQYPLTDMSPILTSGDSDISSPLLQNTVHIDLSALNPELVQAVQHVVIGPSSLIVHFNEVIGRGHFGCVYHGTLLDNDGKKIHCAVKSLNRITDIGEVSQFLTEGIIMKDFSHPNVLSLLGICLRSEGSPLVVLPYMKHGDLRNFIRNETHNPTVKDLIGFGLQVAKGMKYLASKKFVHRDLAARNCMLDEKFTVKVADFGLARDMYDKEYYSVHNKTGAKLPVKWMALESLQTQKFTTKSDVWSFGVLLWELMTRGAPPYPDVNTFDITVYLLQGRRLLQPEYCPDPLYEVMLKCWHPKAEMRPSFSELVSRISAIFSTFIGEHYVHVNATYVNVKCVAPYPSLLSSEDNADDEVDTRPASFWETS

[6] = target: Serine/threonine-protein kinase PAK 4 (Homo sapiens, UniProt O96013); assay: Inhibition of human recombinant PAK4
Serine/threonine-protein kinase PAK 4, sequence (O96013 whole entry): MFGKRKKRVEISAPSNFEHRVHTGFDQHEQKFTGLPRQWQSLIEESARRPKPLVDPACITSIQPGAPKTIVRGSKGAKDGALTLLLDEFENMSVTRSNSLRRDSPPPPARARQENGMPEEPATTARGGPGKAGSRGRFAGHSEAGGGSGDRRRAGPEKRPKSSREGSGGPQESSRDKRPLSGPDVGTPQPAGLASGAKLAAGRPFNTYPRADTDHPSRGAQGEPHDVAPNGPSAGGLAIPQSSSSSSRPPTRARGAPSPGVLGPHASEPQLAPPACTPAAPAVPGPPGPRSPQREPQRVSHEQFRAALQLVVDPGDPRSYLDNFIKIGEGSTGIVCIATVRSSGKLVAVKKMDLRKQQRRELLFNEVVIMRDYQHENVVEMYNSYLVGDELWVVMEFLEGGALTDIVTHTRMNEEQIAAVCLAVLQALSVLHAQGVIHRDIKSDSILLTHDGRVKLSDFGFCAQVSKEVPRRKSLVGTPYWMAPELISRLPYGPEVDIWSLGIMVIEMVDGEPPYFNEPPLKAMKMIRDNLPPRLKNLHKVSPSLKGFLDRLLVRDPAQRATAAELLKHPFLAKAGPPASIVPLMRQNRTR

[7] = target: Serine/threonine-protein kinase PLK1 (Homo sapiens, UniProt P53350); assay: Inhibition of human recombinant Plk1
[8] = target: Ribosomal protein S6 kinase alpha-1 (Homo sapiens, UniProt Q15418); assay: Inhibition of human recombinant Rsk1
Ribosomal protein S6 kinase alpha-1, sequence (Q15418 whole entry): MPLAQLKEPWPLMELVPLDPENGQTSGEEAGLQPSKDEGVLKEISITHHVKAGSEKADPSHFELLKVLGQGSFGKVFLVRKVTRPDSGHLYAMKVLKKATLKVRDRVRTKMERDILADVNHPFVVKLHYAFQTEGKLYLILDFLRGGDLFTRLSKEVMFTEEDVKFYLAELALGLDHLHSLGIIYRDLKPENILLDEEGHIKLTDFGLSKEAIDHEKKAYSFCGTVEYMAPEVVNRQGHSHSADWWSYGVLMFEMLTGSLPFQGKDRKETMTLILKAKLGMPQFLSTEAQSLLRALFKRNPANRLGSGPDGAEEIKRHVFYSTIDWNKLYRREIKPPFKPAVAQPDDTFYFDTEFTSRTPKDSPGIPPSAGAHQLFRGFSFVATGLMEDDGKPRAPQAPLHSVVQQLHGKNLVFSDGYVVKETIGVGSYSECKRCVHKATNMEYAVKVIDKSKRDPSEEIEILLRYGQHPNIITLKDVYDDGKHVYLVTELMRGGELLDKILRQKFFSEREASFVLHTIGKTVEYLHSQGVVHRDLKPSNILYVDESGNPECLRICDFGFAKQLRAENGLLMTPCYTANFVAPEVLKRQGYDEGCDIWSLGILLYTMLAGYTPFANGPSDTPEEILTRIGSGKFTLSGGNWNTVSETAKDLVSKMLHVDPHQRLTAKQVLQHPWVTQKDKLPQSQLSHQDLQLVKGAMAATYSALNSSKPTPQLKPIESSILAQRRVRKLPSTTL

[9] = target: Tyrosine-protein kinase SYK (Homo sapiens, UniProt P43405); assay: Inhibition of human recombinant Syk
[10] = target: BDNF/NT-3 growth factors receptor (Homo sapiens, UniProt Q16620); assay: Inhibition of human recombinant TrkB
SH-SY5Y = assay: Cytotoxicity against human SH-SY5Y cells assessed as cell viability after 72 hrs by MTT assay; format: functional, cell-based
HT-29 = assay: Cytotoxicity against human HT-29 cells assessed as cell viability after 72 hrs by MTT assay; format: functional, cell-based; details: HT-29, 72 h
[11] = Cytotoxicity against human DLD1 cells assessed as cell viability after 72 hrs by MTT assay; format: functional, cell-based; details: DLD-1, 72 h
SW480 = assay: Cytotoxicity against human SW480 cells assessed as cell viability after 72 hrs by MTT assay; format: functional, cell-based; details: SW480, 72 h
CWR22R = assay: Cytotoxicity against human 22Rv1 cells assessed as cell viability after 72 hrs by MTT assay; format: functional, cell-based; details: 22Rv1, 72 h
[12] = Cytotoxicity against human A875 cells assessed as cell viability after 72 hrs by MTT assay; format: functional, cell-based; details: A875, 72 h
A-375 = assay: Cytotoxicity against human A375 cells assessed as cell viability after 72 hrs by MTT assay; format: functional, cell-based; details: A-375, 72 h
A2058 = assay: Cytotoxicity against human A2058 cells assessed as cell viability after 72 hrs by MTT assay; format: functional, cell-based; details: A2058, 72 h
MDA-MB-157 = assay: Cytotoxicity against human MDA-MB-157 cells assessed as cell viability after 72 hrs by MTT assay; format: functional, cell-based; details: MDA-MB-157, 72 h
MDA-MB-231 = assay: Cytotoxicity against human MDA-MB-231 cells assessed as cell viability after 72 hrs by MTT assay; format: functional, cell-based; details: MDA-MB-231, 72 h
MCF7 = assay: Cytotoxicity against human MCF7 cells assessed as cell viability after 72 hrs by MTT assay; format: functional, cell-based; details: MCF7, 72 h
[13] = Cytotoxicity against human SKBR3 cells assessed as cell viability after 72 hrs by MTT assay; format: functional, cell-based; details: SK-BR-3, 72 h
NCI-H1975 = assay: Cytotoxicity against human NCI-H1975 cells assessed as cell viability after 72 hrs by MTT assay; format: functional, cell-based; details: NCI-H1975, 72 h
A549 = assay: Cytotoxicity against human A549 cells assessed as cell viability after 72 hrs by MTT assay; format: functional, cell-based; details: A549, 72 h
[14] = Cytotoxicity against human KYSE-150 cells assessed as cell viability after 72 hrs by MTT assay; format: functional, cell-based; details: KYSE-150, 72 h
[15] = Cytotoxicity against human SKHEP1 cells assessed as cell viability after 72 hrs by MTT assay; format: functional, cell-based; details: SK-HEP1, 72 h
[16] = Cytotoxicity against human UM-UC-3 cells assessed as cell viability after 72 hrs by MTT assay; format: functional, cell-based; details: UMUC3, 72 h
[17] = target: Receptor-type tyrosine-protein kinase FLT3 (Homo sapiens) (UniProt P36888); assay: Inhibition of FLT3 phosphorylation in human MV4-11 cells after 6 hrs by Western blotting analysis; format: cell-based
Receptor-type tyrosine-protein kinase FLT3 (Homo sapiens), sequence (P36888 whole entry): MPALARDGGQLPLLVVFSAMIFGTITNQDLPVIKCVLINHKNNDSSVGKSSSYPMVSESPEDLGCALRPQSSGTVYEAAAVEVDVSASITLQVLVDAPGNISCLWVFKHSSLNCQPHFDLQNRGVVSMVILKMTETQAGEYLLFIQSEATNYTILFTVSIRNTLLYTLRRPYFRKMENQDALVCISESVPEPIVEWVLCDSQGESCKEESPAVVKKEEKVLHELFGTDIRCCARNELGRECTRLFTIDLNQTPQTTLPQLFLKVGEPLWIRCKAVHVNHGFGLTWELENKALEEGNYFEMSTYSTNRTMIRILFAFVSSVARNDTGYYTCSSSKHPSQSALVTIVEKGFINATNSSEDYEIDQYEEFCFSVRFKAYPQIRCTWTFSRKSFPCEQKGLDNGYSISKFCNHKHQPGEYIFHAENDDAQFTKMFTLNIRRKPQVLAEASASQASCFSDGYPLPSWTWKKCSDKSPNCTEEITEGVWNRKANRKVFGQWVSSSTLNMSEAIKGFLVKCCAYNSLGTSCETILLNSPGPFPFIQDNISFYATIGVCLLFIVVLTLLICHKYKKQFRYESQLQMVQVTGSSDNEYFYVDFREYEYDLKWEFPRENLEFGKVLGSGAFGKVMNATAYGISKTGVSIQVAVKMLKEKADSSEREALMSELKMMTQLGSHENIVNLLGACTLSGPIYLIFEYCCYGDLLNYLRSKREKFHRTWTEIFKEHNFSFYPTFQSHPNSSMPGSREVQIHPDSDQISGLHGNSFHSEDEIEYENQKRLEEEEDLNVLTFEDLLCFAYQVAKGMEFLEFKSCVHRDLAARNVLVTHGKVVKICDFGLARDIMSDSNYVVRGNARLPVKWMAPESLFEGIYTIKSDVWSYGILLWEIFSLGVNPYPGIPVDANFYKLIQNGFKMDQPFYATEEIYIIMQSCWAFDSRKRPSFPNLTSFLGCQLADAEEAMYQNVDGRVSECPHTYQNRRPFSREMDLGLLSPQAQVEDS

[18] = target: Receptor-type tyrosine-protein kinase FLT3 (Homo sapiens) (UniProt P36888); assay: Inhibition of FLT3 in human MV4-11 cells assessed as down regulation of ERK1/2 phosphorylation at >0.001 uM after 6 hrs by Western blotting analysis; format: cell-based
Aurora kinase A = Aurora kinase A (Homo sapiens, UniProt O14965); assay: Inhibition of human recombinant Aurora-A
MV4-11 = assay: Cytotoxicity against human MV4-11 cells assessed as cell viability after 72 hrs by MTT assay; format: functional, cell-based; details: MV4-11, 72 h
HeLa = assay: Cytotoxicity against human HeLa cells assessed as cell viability after 72 hrs by MTT assay; format: functional, cell-based
[19] = target: Mast/stem cell growth factor receptor Kit (Homo sapiens, UniProt P10721); assay: Inhibition of human recombinant ckit
[20] = target: Macrophage colony-stimulating factor 1 receptor (Homo sapiens, UniProt P07333); assay: Inhibition of human recombinant Fms
[21] = target: Platelet-derived growth factor receptor alpha (Homo sapiens, UniProt P16234); assay: Inhibition of human recombinant PDGFRalpha
[22] = target: Vascular endothelial growth factor receptor 3 (Homo sapiens, UniProt P35916); assay: Inhibition of human recombinant Flt4
[23] = target: Vascular endothelial growth factor receptor 2 (Homo sapiens, UniProt P35968); assay: Inhibition of human recombinant KDR
[24] = target: Serine/threonine-protein kinase pim-1 (Homo sapiens, UniProt P11309); assay: Inhibition of human recombinant Pim1
[25] = target: Tyrosine-protein kinase ABL2 (Homo sapiens, UniProt P42684); assay: Inhibition of human recombinant Arg
Tyrosine-protein kinase ABL2, sequence (P42684 whole entry): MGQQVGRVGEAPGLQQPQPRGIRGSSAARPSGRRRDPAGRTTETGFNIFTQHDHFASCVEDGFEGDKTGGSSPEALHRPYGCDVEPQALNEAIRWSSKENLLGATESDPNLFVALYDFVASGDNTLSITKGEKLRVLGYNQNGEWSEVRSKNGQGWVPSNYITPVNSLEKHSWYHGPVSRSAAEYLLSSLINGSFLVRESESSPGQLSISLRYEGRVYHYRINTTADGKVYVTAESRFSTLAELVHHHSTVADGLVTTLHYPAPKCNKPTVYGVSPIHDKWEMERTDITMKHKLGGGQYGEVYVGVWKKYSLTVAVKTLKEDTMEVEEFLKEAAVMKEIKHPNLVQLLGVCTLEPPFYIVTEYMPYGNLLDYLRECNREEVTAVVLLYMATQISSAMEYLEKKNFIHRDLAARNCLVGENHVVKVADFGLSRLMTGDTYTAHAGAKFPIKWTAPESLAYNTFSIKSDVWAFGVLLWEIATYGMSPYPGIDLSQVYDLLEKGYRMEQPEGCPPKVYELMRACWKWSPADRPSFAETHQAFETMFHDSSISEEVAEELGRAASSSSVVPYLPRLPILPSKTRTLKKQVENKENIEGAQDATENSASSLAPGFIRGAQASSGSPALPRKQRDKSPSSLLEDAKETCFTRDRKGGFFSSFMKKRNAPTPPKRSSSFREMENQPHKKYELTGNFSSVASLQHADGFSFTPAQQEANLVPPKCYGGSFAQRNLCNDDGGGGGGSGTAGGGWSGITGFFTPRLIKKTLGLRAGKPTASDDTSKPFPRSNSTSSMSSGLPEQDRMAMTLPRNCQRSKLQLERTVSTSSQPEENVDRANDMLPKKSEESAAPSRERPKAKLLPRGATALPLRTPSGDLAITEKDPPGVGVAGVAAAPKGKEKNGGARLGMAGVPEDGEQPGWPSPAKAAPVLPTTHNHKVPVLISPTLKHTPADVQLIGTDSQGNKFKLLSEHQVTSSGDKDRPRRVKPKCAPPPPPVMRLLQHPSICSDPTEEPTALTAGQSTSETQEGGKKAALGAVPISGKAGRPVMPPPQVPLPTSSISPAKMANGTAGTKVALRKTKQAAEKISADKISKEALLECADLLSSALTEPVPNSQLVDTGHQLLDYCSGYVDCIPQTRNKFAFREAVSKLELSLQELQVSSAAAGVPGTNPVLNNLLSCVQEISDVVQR

Aurora kinase B = Aurora kinase B (Homo sapiens, UniProt Q96GD4); assay: Inhibition of human recombinant Aurora-B
[26] = target: Cytoplasmic tyrosine-protein kinase BMX (Homo sapiens, UniProt P51813); assay: Inhibition of human recombinant Bmx
[27] = target: Cyclin-dependent kinase 2 (Homo sapiens, UniProt P24941); assay: Inhibition of human recombinant CDK2
[28] = target: Cyclin-dependent kinase 7 (Homo sapiens, UniProt P50613); assay: Inhibition of human recombinant CDK7
[29] = target: RAF proto-oncogene serine/threonine-protein kinase (Homo sapiens, UniProt P04049); assay: Inhibition of human recombinant c-RAF
Myotonin-protein kinase = Myotonin-protein kinase (Homo sapiens, UniProt Q09013); assay: Inhibition of human recombinant DMPK
[30] = target: Epidermal growth factor receptor (Homo sapiens, UniProt P00533); assay: Inhibition of human recombinant EGFR
[31] = target: Receptor tyrosine-protein kinase erbB-2 (Homo sapiens, UniProt P04626); assay: Inhibition of human recombinant ErbB2
[32] = target: Tyrosine-protein kinase Fes/Fps (Homo sapiens, UniProt P07332); assay: Inhibition of human recombinant Fes
[33] = target: Tyrosine-protein kinase Fyn (Homo sapiens, UniProt P06241); assay: Inhibition of human recombinant Fyn
[34] = target: Mitogen-activated protein kinase 10 (Homo sapiens, UniProt P53779); assay: Inhibition of human recombinant JNK3

For CN(C)CCCNC(=O)c1csc2nc(-c3ccc(NC(=O)Nc4cc(C(C)(C)C)on4)cc3)cn12, the IC50 [1] was greater than 10 µM, the IC50 [2] was greater than 10 µM and the IC50 [3] was greater than 10 µM. It also gave an IC50 [4] greater than 10 µM, an IC50 [5] greater than 10 µM and an IC50 [6] greater than 10 µM. It also gave an IC50 [7] greater than 10 µM, an IC50 [8] greater than 10 µM and an IC50 [9] greater than 10 µM. It also gave an IC50 [10] greater than 10 µM, an IC50 (SH-SY5Y) of 3.3 µM and an IC50 (HT-29) of 10 µM. The IC50 [11] was 10 µM, the IC50 (SW480) was 10 µM and the IC50 (CWR22R) was greater than 10 µM. The IC50 [12] was 10 µM, the IC50 (A-375) was 10 µM and the IC50 (A2058) was 10 µM. It also gave an IC50 (MDA-MB-157) greater than 10 µM, an IC50 (MDA-MB-231) of 10 µM and an IC50 (MCF7) greater than 10 µM. The IC50 [13] was 10 µM, the IC50 (NCI-H1975) was greater than 10 µM and the IC50 (A549) was 10 µM. The IC50 [14] was greater than 10 µM, the IC50 [15] was 10 µM and the IC50 [16] was 10 µM. For the same compound, the inhibition [17] was “Dose-dependent effect”, the inhibition [18] was “Active” and the IC50 (Aurora kinase A) was greater than 10 µM. For the same compound, the IC50 (MV4-11) was 2 nM, the IC50 (HeLa) was 20 µM and the IC50 [19] was 294 nM. It also gave an IC50 [20] of 43 nM, an IC50 [21] of 370 nM and an IC50 [22] of 1190 nM. It also gave an IC50 [23] of 2460 nM, an IC50 [24] of 4.04 µM and an IC50 [25] greater than 10 µM. It also gave an IC50 (Aurora kinase B) greater than 10 µM, an IC50 [26] greater than 10 µM and an IC50 [27] greater than 10 µM. It also gave an IC50 [28] greater than 10 µM, an IC50 [29] greater than 10 µM and an IC50 (Myotonin-protein kinase) greater than 10 µM. The IC50 [30] was greater than 10 µM, the IC50 [31] was greater than 10 µM and the IC50 [32] was greater than 10 µM. It also gave an IC50 [33] greater than 10 µM and an IC50 [34] greater than 10 µM.
